Holding throughout (format): biochemical
The target of experiment [1] is T1, R. fascians ADP-Glc PPase (Rhodococcoides fascians, UniProt A0A143QED7).
T1 construct: gene glgC; recombinant in E. coli BL21 (DE3), His-tagged, IMAC purified; actinobacterial enzyme is a GlgC tetramer
T1 sequence (A0A143QED7 1-404): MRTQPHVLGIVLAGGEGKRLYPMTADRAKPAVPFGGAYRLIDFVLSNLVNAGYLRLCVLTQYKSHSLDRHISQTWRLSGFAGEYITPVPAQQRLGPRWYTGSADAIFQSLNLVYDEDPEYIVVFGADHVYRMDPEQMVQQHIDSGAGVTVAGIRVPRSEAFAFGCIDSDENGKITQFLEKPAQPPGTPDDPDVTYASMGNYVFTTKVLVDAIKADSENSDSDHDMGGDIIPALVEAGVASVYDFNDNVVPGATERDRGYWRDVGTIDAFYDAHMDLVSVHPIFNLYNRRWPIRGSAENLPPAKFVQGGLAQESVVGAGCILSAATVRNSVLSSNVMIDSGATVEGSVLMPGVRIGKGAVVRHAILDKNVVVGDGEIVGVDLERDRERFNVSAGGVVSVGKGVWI
Description: activation of ADP-Glc synthesis, malachite green Pi release. The settings on record: allosteric activator; Glc-1P and ATP as substrates, Mg2+, pH 8.0, 37°C.

Experiment [2] has as its target T2, A. tumefaciens ADP-Glc PPase (Agrobacterium tumefaciens, UniProt P39669).
T2 construct: gene glgC; recombinant in E. coli; proteobacterial enzyme is a GlgC homotetramer
T2 sequence (P39669 1-420): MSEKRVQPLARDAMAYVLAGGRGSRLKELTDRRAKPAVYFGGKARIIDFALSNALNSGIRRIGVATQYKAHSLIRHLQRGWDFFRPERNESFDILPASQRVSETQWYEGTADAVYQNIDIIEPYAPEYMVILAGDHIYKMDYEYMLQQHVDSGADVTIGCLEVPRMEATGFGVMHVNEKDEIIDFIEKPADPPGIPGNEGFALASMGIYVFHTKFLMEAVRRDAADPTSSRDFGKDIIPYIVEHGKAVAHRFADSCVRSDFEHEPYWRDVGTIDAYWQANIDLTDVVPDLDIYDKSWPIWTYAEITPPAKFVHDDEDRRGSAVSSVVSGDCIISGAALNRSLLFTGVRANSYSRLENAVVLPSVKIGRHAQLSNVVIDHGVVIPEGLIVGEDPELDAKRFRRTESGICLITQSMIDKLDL
The experiment is described as follows: saturation curve, malachite green Pi release coupled to pyrophosphatase. The conditions noted are these: ATP co-substrate, Mg2+, pH 8.0, 37°C.

Experiment [3] deals with T3, S. coelicolor ADP-Glc PPase (Streptomyces coelicolor, UniProt P72394).
T3 construct: gene glgC; recombinant in E. coli BL21 (DE3), His-tagged, IMAC purified; actinobacterial enzyme is a GlgC tetramer
T3 sequence (P72394 1-399): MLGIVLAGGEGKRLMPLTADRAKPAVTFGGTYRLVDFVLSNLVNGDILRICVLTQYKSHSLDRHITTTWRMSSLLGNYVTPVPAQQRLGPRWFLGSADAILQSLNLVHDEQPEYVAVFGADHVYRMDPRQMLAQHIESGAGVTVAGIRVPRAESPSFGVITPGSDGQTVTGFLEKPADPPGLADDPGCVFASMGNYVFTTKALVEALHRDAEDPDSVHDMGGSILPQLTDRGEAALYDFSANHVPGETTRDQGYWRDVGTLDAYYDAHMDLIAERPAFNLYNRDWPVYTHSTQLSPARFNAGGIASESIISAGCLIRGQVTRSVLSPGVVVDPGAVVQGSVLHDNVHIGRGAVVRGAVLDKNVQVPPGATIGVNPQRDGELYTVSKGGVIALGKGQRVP
The experiment is described as follows: activation curve, malachite green Pi release coupled to pyrophosphatase. The settings on record: allosteric activator (4-fold); Glc-1P and ATP as substrates, Mg2+, pH 8.0, 37°C; read-out: A0.5.

The target in experiment [4] is T4, K. rhizophila ADP-Glc PPase (Kocuria rhizophila, UniProt B2GHR6).
T4 construct: gene glgC; recombinant in E. coli BL21 (DE3), His-tagged, IMAC purified; actinobacterial enzyme is a GlgC tetramer
T4 sequence (B2GHR6 1-414): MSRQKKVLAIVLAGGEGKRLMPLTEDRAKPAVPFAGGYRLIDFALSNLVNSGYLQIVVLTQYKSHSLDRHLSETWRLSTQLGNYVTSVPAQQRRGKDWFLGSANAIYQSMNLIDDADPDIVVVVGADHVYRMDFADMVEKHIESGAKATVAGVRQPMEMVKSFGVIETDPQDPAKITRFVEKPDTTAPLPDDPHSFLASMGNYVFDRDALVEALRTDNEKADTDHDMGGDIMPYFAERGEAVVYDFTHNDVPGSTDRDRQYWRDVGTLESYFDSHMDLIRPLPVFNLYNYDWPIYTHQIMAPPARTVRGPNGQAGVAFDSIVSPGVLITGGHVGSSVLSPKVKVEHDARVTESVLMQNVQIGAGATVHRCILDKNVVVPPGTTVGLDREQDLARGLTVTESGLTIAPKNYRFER
The description is as above. The settings on record: allosteric activator (Vmax 4-fold); Glc-1P and ATP as substrates, Mg2+, pH 8.0, 37°C; read-out: A0.5.

In experiment [5] the target is T2, A. tumefaciens ADP-Glc PPase. The experiment is described as follows: effect on ADP-Glc synthesis, malachite green Pi release. The settings on record: allosteric effector, lowers activity; Glc-1P and ATP as substrates, Mg2+, pH 8.0, 37°C.
Experiment [6] deals with T5, R. albus ADP-Glc PPase GlgC/GlgD (Hominimerdicola alba, UniProt E9SED8).
T5 construct: recombinant in E. coli, IMAC purified; heterotetramer; with Glucose-1-phosphate adenylyltransferase, GlgD subunit
T5 sequence (E9SED8 1-400): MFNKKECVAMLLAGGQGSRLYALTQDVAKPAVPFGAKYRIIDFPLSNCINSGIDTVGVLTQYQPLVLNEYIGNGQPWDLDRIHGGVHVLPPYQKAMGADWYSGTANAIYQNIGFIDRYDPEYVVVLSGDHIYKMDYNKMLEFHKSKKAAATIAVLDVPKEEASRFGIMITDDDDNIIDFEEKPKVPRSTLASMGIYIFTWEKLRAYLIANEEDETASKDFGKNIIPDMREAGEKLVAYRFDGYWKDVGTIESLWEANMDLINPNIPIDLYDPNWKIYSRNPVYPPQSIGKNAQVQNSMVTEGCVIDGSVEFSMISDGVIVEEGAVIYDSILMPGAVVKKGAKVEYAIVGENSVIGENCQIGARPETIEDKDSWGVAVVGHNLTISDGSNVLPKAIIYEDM
T5 sequence (E9SED9 1-371 partner): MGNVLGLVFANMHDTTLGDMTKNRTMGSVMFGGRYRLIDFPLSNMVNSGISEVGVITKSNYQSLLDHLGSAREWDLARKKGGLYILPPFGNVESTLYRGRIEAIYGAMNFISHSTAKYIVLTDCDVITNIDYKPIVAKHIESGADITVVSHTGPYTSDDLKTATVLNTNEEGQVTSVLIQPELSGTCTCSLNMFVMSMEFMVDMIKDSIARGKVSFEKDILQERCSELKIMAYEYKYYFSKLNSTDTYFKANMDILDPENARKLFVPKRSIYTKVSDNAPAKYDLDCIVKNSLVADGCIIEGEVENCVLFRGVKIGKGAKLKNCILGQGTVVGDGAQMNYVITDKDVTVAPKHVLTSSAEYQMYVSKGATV
The experiment is described as follows: activation of ADP-Glc synthesis, malachite green Pi release. The conditions noted are these: allosteric activator; Glc-1P and ATP as substrates, Mg2+, pH 8.0, 37°C.

In experiment [7] the target is T6, R. albus ADP-Glc PPase GlgC (Hominimerdicola alba, UniProt E9SED8).
T6 construct: recombinant in E. coli, IMAC purified; homotetramer
T6 sequence (E9SED8 1-400): T5 sequence (E9SED8 1-400)
The description is as above. The settings on record: allosteric activator; Glc-1P and ATP as substrates, Mg2+, pH 8.0, 37°C.

As to `O=P(O)(O)OC[C@H]1OC(O)[C@H](O)[C@@H](O)[C@@H]1O` (some centres unmarked) [Glc-6P], in experiment [1], the fold activation is listed as ~ 8 fold.
With `N[C@H]1[C@@H](OP(=O)(O)O)O[C@H](CO)[C@@H](O)[C@@H]1O` [GlcN-1P], the Km result in experiment [2] is listed as “The enzyme was active with GlcN-1P as a substrate”.
As for `N[C@H]1C(O)O[C@H](COP(=O)(O)O)[C@@H](O)[C@@H]1O` (some centres unmarked) [GlcN-6P], the EC50 in experiment [3] turned out to be 3550 ± 520 µM; in experiment [4], 80 µM. Further, the “% decrease of activity” value in experiment [5] is ~ 30%. Besides, the “activation of ADP-Glc synthesis, malachite green Pi release” value in experiment [6] was “both R. albus GlgC and GlgC/GlgD responded to GlcN-6P activation”; in experiment [7], “both R. albus GlgC and GlgC/GlgD responded to GlcN-6P activation”. For the same molecule, the fold activation in experiment [1] was ~ 8 fold.

(Values after publication PMC9093745, “Carbohydrate Metabolism in Bacteria: Alternative Specificities in ADP-Glucose Pyrophosphorylases Open Novel Metabolic Scenarios and Biotechnological Tools” (Frontiers in Microbiology, 2022).)
